# Test results reported in patent US20040127440A1, “Methods and compositions for control of bone formation via modulation of neuropeptide Y activity” (BAYLOR COLLEGE OF MEDICINE, priority 2000, published 2004).
# Test system: wt mice
# Test: Intracerebroventricular infusion of NPY in wt mice, histological/histomorphometric analysis of vertebrae
# Format: in vivo
# Conditions: 4 month-old wt mice, icv infusion 0.5 μl/hour (75 ng/hr) for 28 days, compared with PBS-treated mice
# Procedure: Bone specimens were processed as described (Ducy et al., 1999, Genes Dev 13, 1025-1036).
# Histological analyses were performed on undecalcified sections stained with the von Kossa reagent and counterstained with Kernechtrot (Amling et al., 1999, Endocrinology, 140: 4982-4987). Double labeling technique with calcein has been described (Amling et al., 1999, Endocrinology, 140: 4982-4987). Static and dynamic histomorphometric analyses were performed according to standard protocols (Parfitt et al., 1987, J Bone Min Res, 2:595-610) using the Osteomeasure Analysis System (Osteometrics, Atlanta). Statistical differences between groups (n=4 to 6) were assessed by Student's test.
# Animals were anesthetized with avertin and placed on a stereotaxic instrument (Stoelting). The calvaria was exposed and a 0.7 mm hole was drilled upon bregma. A 28-gauge cannula (Brain infusion kit II, Alza) was implanted into the third ventricle according to the following coordinates: midline, −0.3 AP, 3 mm ventral (0 point bregma). The cannula was secure to the skull with cyanoacrylate, and attached with Tygon tubing to an osmotic pump (Alza) placed in the dorsal subcutaneous space of the animal. The rate of delivery was 0.5 μl/hour (75 ng/hr) of NPY (Sigma) or PBS for 28 days.
# The issue of whether NPY binding to its receptor would affect bone mass was examined in this example. […]
substance,measurement,value
neuropeptide Y [NPY],bone mass,decrease
same,bone volume,decrease
